Results reported in patent US5866597A, “Use of triazine compounds for the treatment of memory and learning disorders” (Glaxo Wellcome Inc., priority 1993, dated 1999).

Key:
[1] = test system: scopolamine-induced deficit in rats; test: Light-dark box memory test in rats, sub-acute dosing: pre-training, pre-training and pre-retest, or four pre-treatments and before training and retest (Table 5); type: in vivo, Male Wistar rats; details: for Mean latency Day 5 / Mean latency Day 6: ± SEM
Method: Male Wistar rats obtained from Charles River were used. They were housed under controlled conditions (temperature 21±2 deg. C., humidity approx. 50%, 12 hour light/dark cycle, food and water ad lib) for one week before use. On the day before test the rats were permanently housed in groups of six. Food and water were supplied ad lib. On the test day, animals were weighed and then dosed either 30 minutes before test (midazolam), one hour before test (compound A) or immediately after test.
In the sub-acute dosing regimen (see `Procedure`) the rats, housed as above, received six doses of drug or vehicle by the oral route, each 24 hours apart.
All drugs were dissolved or suspended in 0.25% (w/v) aqueous celacol, and administered orally (by gavage), i.p. or s.c. The dose volume was 5 ml/kg for all routes.
An identical apparatus to that described in Example 1 was used, except that the smaller box measured 370 mm×260 mm×190 mm.
This consisted of training as described for mice under section (d) of Example 1.
The procedure was identical with that described above, except that seven groups of rats received compound A or control pre-treatment as 6 oral doses each 24 hours apart, as follows.
Training took place 1 hour after the fifth dose i.e. on day 5. […] The usual retest was performed 24 hours later (on day 6), one hour after the sixth oral treatment.
This was as described under section (e) of Example 1.
The mean latency to enter the dark box±standard error of the mean was calculated from a group of 24 animals (controls in first block) or 12 animals (all other treatments). For a given treatment, figures in the columns labelled `Day 5` and `Day 6` show the mean latencies taken from the same group of animals. The difference between data obtained on the two days is illustrated by showing the % decrease, and the data compared using the Mann-Whitney U-test.

[2] = test system: voltage-sensitive sodium channels; details: Lang et al 1993; Lees and Leach 1993; cited from earlier work
[3] = saline + compound A 2.5 mg/kg p.o. days 1-6
[4] = saline + compound A 10 mg/kg p.o. day 5 only
[5] = saline + compound A 10 mg/kg p.o. days 1-6
[6] = saline + compound A 10 mg/kg p.o. days 5 and 6
[7] = saline + compound A 40 mg/kg p.o. day 5 only
[8] = saline + compound A 40 mg/kg p.o. days 5 and 6
[9] = scopolamine 0.1 mg/kg s.c. + compound A 2.5 mg/kg p.o. days 1-6
[10] = scopolamine 0.1 mg/kg s.c. + compound A 10 mg/kg p.o. day 5 only
[11] = scopolamine 0.1 mg/kg s.c. + compound A 10 mg/kg p.o. days 1-6
[12] = scopolamine 0.1 mg/kg s.c. + compound A 10 mg/kg p.o. days 5 and 6
[13] = scopolamine 0.1 mg/kg s.c. + compound A 40 mg/kg p.o. day 5 only
[14] = scopolamine 0.1 mg/kg s.c. + compound A 40 mg/kg p.o. days 5 and 6

## Nc1nnc(-c2cccc(Cl)c2Cl)c(N)n1 [Compound A, 3,5-Diamino-6-(2,3-dichlorophenyl)-1,2,4-triazine]
[1]; compound A single dose 10 mg/kg before the learning trial
  Effect on scopolamine-induced deficit: did not alter the scopolamine-induced deficit
[1]; saline + compound A 2.5 mg/kg p.o. days 1-6, p <0.01
  Diff. between days, %: 46%
[1]; [3]
  Mean latency Day 5: 35.3 ± 3.7 s
  Mean latency Day 6: 19.3 ± 2.5 s
[1]; saline + compound A 10 mg/kg p.o. day 5 only, p <0.001
  Diff. between days, %: 52%
[1]; [4]
  Mean latency Day 5: 39.8 ± 3.9 s
  Mean latency Day 6: 19.3 ± 2.5 s
[1]; saline + compound A 10 mg/kg p.o. days 1-6, p <0.01
  Diff. between days, %: 44%
[1]; [5]
  Mean latency Day 5: 34.3 ± 3.6 s
  Mean latency Day 6: 19.1 ± 3.4 s
[1]; saline + compound A 10 mg/kg p.o. days 5 and 6, p <0.001
  Diff. between days, %: 48%
[1]; [6]
  Mean latency Day 5: 37.2 ± 3.1 s
  Mean latency Day 6: 19.3 ± 2.6 s
[1]; saline + compound A 40 mg/kg p.o. day 5 only, p <0.01
  Diff. between days, %: 45%
[1]; [7]
  Mean latency Day 5: 35.2 ± 3.4 s
  Mean latency Day 6: 19.3 ± 3.4 s
[1]; saline + compound A 40 mg/kg p.o. days 5 and 6, p <0.001
  Diff. between days, %: 50%
[1]; [8]
  Mean latency Day 5: 36.0 ± 3.2 s
  Mean latency Day 6: 17.8 ± 2.2 s
[1]; scopolamine 0.1 mg/kg s.c. + compound A 2.5 mg/kg p.o. days 1-6, p NS
  Diff. between days, %: 16%
[1]; [9]
  Mean latency Day 5: 33.8 ± 3.0 s
  Mean latency Day 6: 28.4 ± 3.4 s
[1]; scopolamine 0.1 mg/kg s.c. + compound A 10 mg/kg p.o. day 5 only, p NS
  Diff. between days, %: -4%
[1]; [10]
  Mean latency Day 5: 34.3 ± 2.8 s
  Mean latency Day 6: 15.8 ± 4.5 s
[1]; scopolamine 0.1 mg/kg s.c. + compound A 10 mg/kg p.o. days 1-6, p <0.01
  Diff. between days, %: 41%
[1]; [11]
  Mean latency Day 5: 35.4 ± 3.2 s
  Mean latency Day 6: 20.8 ± 3.6 s
[1]; scopolamine 0.1 mg/kg s.c. + compound A 10 mg/kg p.o. days 5 and 6, p NS (0.1)
  Diff. between days, %: 28%
[1]; [12]
  Mean latency Day 5: 38.2 ± 4.3 s
  Mean latency Day 6: 27.7 ± 3.5 s
[1]; scopolamine 0.1 mg/kg s.c. + compound A 40 mg/kg p.o. day 5 only, p printed #0.001
  Diff. between days, %: 46%
[1]; [13]
  Mean latency Day 5: 33.3 ± 2.6 s
  Mean latency Day 6: 18.0 ± 2.0 s
[1]; scopolamine 0.1 mg/kg s.c. + compound A 40 mg/kg p.o. days 5 and 6, p <0.01
  Diff. between days, %: 48%
[1]; [14]
  Mean latency Day 5: 33.6 ± 3.6 s
  Mean latency Day 6: 17.5 ± 2.5 s
[2]
  Block of voltage-sensitive sodium channels: use-dependent block of voltage-sensitive sodium channels
